From patent US20230364070A1, “PYRROLO[3,2-C]PYRIDIN-4-ONE DERIVATIVES USEFUL IN THE TREATMENT OF CANCER” (Scorpion Therapeutics, Inc., priority 2020, published 2023)

What was measured:
Format in all cases: cell-based
[1] = molecular target: T1, pEGFR in Ba/F3 cells expressing EGFR exon 20 ASV Ins V769_D770 (Homo sapiens, UniProt P00533, INS769ASV); assay: Inhibitor activity on EGFR phosphorylation (pEGFR AlphaLISA, 2 h), Ba/F3 EGFR exon 20 ASV insertion; details: Ba/F3 EGFR exon 20 ASV Ins V769_D770
T1 construct: expressed in transfected cells; host or cells: Ba/F3 (murine pro-B cells), retroviral transduction, puromycin selection, IL3-independent pool
T1 sequence (P00533 with tags, fused parts or gaps INS769ASV): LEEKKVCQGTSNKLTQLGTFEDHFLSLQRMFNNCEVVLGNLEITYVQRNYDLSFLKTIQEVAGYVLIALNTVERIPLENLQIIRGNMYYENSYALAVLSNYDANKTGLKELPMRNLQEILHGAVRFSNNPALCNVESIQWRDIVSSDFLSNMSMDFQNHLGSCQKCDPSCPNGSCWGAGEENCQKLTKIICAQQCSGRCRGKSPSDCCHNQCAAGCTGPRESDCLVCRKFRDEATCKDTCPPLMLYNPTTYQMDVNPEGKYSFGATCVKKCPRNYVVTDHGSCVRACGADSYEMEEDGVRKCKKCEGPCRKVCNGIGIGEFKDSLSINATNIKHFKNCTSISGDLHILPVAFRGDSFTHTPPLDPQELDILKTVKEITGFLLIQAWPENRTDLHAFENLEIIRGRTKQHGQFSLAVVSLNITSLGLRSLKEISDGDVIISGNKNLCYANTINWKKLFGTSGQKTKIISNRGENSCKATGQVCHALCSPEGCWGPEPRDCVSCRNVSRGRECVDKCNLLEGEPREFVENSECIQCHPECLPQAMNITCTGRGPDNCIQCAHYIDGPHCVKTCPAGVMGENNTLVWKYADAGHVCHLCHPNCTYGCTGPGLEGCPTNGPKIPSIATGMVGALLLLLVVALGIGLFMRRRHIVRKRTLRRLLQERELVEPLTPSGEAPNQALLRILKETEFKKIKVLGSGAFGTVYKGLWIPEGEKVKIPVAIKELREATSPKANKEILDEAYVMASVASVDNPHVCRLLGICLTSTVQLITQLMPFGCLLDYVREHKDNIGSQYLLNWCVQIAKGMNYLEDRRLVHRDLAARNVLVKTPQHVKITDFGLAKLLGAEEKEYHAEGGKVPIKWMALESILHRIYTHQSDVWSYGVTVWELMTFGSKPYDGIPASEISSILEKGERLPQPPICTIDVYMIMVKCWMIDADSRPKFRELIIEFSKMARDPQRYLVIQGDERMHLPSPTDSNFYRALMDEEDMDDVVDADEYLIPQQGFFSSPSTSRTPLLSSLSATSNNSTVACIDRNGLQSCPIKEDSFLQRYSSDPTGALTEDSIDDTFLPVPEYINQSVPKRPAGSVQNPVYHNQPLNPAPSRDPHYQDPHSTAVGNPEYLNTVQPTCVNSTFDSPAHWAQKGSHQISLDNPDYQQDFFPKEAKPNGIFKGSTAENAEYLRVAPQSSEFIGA

[2] = molecular target: T2, Ba/F3 cells with EGFR exon 20 NPG Ins D770_N771 (Homo sapiens, UniProt P00533, INS770NPG); assay: EGFR activity: Ba/F3 cell viability (CellTiter-Glo, 72 h), EGFR exon 20 NPG insertion; details: EGFR exon 20 NPG Ins D770_N771, cell viability, read-out: BaF3 NPG IC50
T2 construct: expressed in transfected cells; host or cells: Ba/F3 (murine pro-B cells), retroviral transduction, puromycin selection, IL3-independent pool
T2 sequence (P00533 with tags, fused parts or gaps INS770NPG): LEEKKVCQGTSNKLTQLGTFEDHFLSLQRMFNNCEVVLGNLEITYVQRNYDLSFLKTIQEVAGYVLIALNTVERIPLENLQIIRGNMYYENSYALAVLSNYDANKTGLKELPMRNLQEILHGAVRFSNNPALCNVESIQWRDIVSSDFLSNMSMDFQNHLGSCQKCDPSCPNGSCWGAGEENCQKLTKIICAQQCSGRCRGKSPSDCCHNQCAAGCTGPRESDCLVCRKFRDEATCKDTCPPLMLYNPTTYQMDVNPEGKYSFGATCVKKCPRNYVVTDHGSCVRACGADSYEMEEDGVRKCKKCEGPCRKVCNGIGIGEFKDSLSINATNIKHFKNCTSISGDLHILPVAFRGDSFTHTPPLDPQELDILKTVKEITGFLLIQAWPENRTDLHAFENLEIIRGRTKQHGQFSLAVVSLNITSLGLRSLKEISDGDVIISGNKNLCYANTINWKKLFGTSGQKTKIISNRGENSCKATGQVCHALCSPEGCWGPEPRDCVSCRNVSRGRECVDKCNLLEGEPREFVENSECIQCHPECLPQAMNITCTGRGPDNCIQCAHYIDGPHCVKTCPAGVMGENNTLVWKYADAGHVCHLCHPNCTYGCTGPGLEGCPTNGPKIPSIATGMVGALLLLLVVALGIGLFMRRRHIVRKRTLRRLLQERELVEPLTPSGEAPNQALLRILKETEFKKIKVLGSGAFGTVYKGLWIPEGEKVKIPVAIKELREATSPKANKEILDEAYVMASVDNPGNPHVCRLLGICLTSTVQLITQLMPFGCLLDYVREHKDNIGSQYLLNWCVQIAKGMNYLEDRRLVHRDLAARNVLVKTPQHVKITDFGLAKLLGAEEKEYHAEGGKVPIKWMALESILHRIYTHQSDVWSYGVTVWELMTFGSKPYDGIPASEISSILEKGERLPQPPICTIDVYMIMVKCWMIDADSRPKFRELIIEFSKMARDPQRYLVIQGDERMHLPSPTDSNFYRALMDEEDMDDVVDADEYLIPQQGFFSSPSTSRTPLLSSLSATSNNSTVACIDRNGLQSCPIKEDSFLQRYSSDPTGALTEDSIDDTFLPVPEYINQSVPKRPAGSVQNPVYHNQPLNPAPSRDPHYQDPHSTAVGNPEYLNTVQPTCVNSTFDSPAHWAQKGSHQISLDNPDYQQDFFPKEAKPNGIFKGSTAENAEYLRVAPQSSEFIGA

[3] = molecular target: T3, Ba/F3 cells with EGFR exon 20 ASV Ins V769_D770 (Homo sapiens, UniProt P00533, INS769ASV); assay: EGFR activity: Ba/F3 cell viability (CellTiter-Glo, 72 h), EGFR exon 20 ASV insertion; details: EGFR exon 20 ASV Ins V769_D770, cell viability, read-out: BaF3 ASV IC50
T3 construct: expressed in transfected cells; host or cells: Ba/F3 (murine pro-B cells), retroviral transduction, puromycin selection, IL3-independent pool

Ba/F3 cells with EGFR WT = molecular target: T4, Ba/F3 cells with EGFR WT (Homo sapiens, UniProt P00533); assay: EGFR activity: Ba/F3 cell viability (CellTiter-Glo, 72 h), EGFR WT; details: read-out: BaF3 WT IC50
T4 construct: expressed in transfected cells; host or cells: Ba/F3 (murine pro-B cells), retroviral transduction, puromycin selection, maintained with EGF

[4] = molecular target: T5, pEGFR in Ba/F3 cells expressing EGFR exon 20 NPG Ins D770_N771 (Homo sapiens, UniProt P00533, INS770NPG); assay: Inhibitor activity on EGFR phosphorylation (pEGFR AlphaLISA, 2 h), Ba/F3 EGFR exon 20 NPG insertion; details: Ba/F3 EGFR exon 20 NPG Ins D770_N771
T5 construct: expressed in transfected cells; host or cells: Ba/F3 (murine pro-B cells), retroviral transduction, puromycin selection, IL3-independent pool
T5 sequence (P00533 with tags, fused parts or gaps INS770NPG): as above

pEGFR in CUTO14 cells = molecular target: T6, pEGFR in CUTO14 cells (Homo sapiens, UniProt P00533, DUP767-769); assay: Inhibitor activity on EGFR phosphorylation (pEGFR AlphaLISA, 2 h), CUTO14 cells
T6 construct: endogenous in cells; host or cells: CUTO14 cells
T6 sequence (P00533 with tags, fused parts or gaps DUP767-769): as the sequence (P00533 with tags, fused parts or gaps INS769ASV) above
Description: CUTO14 cells were obtained from Dr. Robert C. Doebele at the University of Colorado.
Shake 350 rpm for 1 hr in the dark • 3.4 Prepare donor mix under low light conditions prior to use. Dispense 5 μL of donor mix to all the wells. Mix well on the shaker, seal and wrap in aluminum foil and incubate 1.5 hrs at room temperature in the dark • 3.5 Transfer 18.5 μL mixture to OptiPlate 384, and read using an Envision.

IC50 [1] | IC50 [4] | IC50 (pEGFR in CUTO14 cells) | SMILES | IC50 [2] | IC50 [3] | IC50 (Ba/F3 cells with EGFR WT)
> 1 µM |  |  | COc1c(F)cccc1Nc1c(-c2ccncc2OCc2csc3nccn23)[nH]c2c1C(=O)NCC2 [Compound 130, 3-[(3-fluoro-2-methoxyphenyl)amino]-2-(3-[imidazo[2,1-b][1,3]thiazol-3-ylmethoxy]pyridin-4-yl)-1H,5H,6H,7H-pyrrolo[3,2-c]pyridin-4-one] | > 1 µM | > 1 µM | > 1 µM
 | < 0.1 µM |  | C=CC(=O)N1CCC[C@@H]1COc1cnccc1-c1[nH]c2c(c1Nc1cccc(Cl)c1OC)C(=O)NCC2 [Compound 138a, 3-[(3-chloro-2-methoxyphenyl)amino]-2-(3-[[(2R)-1-(prop-2-enoyl)pyrrolidin-2-yl]methoxy]pyridin-4-yl)-1H,5H,6H,7H-pyrrolo[3,2-c]pyridin-4-one] | < 0.1 µM | < 0.1 µM | 0.1 to 1 µM
 | < 0.1 µM |  | C=CC(=O)N1CCC[C@H]1COc1cnccc1-c1[nH]c2c(c1Nc1cccc(Cl)c1OC)C(=O)NCC2 [Compound 138b, (S)-2-(3-((1-acryloylpyrrolidin-2-yl)methoxy)pyridin-4-yl)-3-((3-chloro-2-methoxyphenyl)amino)-1,5,6,7-tetrahydro-4H-pyrrolo[3,2-c]pyridin-4-one] | < 0.1 µM | < 0.1 µM | 0.1 to 1 µM
 | 0.1 to 1 µM |  | CCC(=O)N1CCC[C@H]1COc1cnccc1-c1[nH]c2c(c1Nc1cccc(Cl)c1OC)C(=O)NCC2 [Compound 139, (S)-3-((3-chloro-2-methoxyphenyl)amino)-2-(3-((1-propionylpyrrolidin-2-yl)methoxy)pyridin-4-yl)-1,5,6,7-tetrahydro-4H-pyrrolo[3,2-c]pyridin-4-one] | > 1 µM | > 1 µM | > 1 µM
 | < 0.1 µM |  | COc1c(Cl)cccc1Nc1c(-c2ccncc2OC[C@H]2CCCN2S(C)(=O)=O)[nH]c2c1C(=O)NCC2 [Compound 142b, 3-[(3-chloro-2-methoxyphenyl)amino]-2-(3-[[(2R)-1-methanesulfonylpyrrolidin-2-yl]methoxy]pyridin-4-yl)-1H,5H,6H,7H-pyrrolo[3,2-c]pyridin-4-one] | < 0.1 µM | < 0.1 µM | 0.1 to 1 µM
< 0.1 µM |  |  | COc1c(F)cccc1Nc1c(-c2ccncc2OCc2cnc3n2CCC3)[nH]c2c1C(=O)NCC2 [Compound 150, 2-(3-((6,7-dihydro-5H-pyrrolo[1,2-a]imidazol-3-yl)methoxy)pyridin-4-yl)-3-((3-fluoro-2-methoxyphenyl)amino)-1,5,6,7-tetrahydro-4H-pyrrolo[3,2-c]pyridin-4-one] | > 1 µM | 0.1 to 1 µM | > 1 µM
 | < 0.1 µM |  | COc1c(Cl)cccc1Nc1c(-c2ccncc2C#CC(C)(C)OC)[nH]c2c1C(=O)NCC2 [Compound 188, 3-((3-chloro-2-methoxyphenyl)amino)-2-(3-(3-methoxy-3-methylbut-1-yn-1-yl)pyridin-4-yl)-1,5,6,7-tetrahydro-4H-pyrrolo[3,2-c]pyridin-4-one] | < 0.1 µM | 0.1 to 1 µM | < 0.1 µM
 | < 0.1 µM |  | C=CC(=O)N1CCCC[C@@H]1COc1cnccc1-c1[nH]c2c(c1Nc1cccc(F)c1C)C(=O)NCC2 [Compound 468, 3-[(3-fluoro-2-methylphenyl)amino]-2-(3-[[(2R)-1-(prop-2-enoyl)piperidin-2-yl]methoxy]pyridin-4-yl)-1H,5H,6H,7H-pyrrolo[3,2-c]pyridin-4-one] | 0.1 to 1 µM | 0.1 to 1 µM | 0.1 to 1 µM
 | 0.1 to 1 µM |  | CCC(=O)N1CCC[C@@H]1COc1cnccc1-c1[nH]c2c(c1Nc1cccc(Cl)c1OC)C(=O)NCC2 [Compound 470, 3-[(3-chloro-2-methoxyphenyl)amino]-2-(3-[[(2R)-1-propanoylpyrrolidin-2-yl]methoxy]pyridin-4-yl)-1H,5H,6H,7H-pyrrolo[3,2-c]pyridin-4-one] | > 1 µM | > 1 µM | > 1 µM
 | < 0.1 µM |  | COc1c(F)cccc1Nc1c(-c2ccncc2OCc2ccccn2)[nH]c2c1C(=O)NCC2 [Compound 472, 3-[(3-fluoro-2-methoxyphenyl)amino]-2-[3-(pyridin-2-ylmethoxy)pyridin-4-yl]-1H,5H,6H,7H-pyrrolo[3,2-c]pyridin-4-one] | < 0.1 µM | < 0.1 µM | < 0.1 µM
< 0.1 µM |  |  | COc1c(F)cccc1Nc1c(-c2ccncc2OCc2ncco2)[nH]c2c1C(=O)NCC2 [Compound 474, 3-[(3-fluoro-2-methoxyphenyl)amino]-2-[3-(1,3-oxazol-2-ylmethoxy)pyridin-4-yl]-1H,5H,6H,7H-pyrrolo[3,2-c]pyridin-4-one] | > 1 µM | 0.1 to 1 µM | 0.1 to 1 µM
 | < 0.1 µM |  | COc1cccnc1COc1cnccc1-c1[nH]c2c(c1Nc1cccc(F)c1OC)C(=O)NCC2 [Compound 476, 3-[(3-fluoro-2-methoxyphenyl)amino]-2-[3-[(3-methoxypyridin-2-yl)methoxy]pyridin-4-yl]-1H,5H,6H,7H-pyrrolo[3,2-c]pyridin-4-one] | < 0.1 µM | < 0.1 µM | 0.1 to 1 µM
 | < 0.1 µM |  | COc1c(F)cccc1Nc1c(-c2ccncc2OCc2nccn2C)[nH]c2c1C(=O)NCC2 [Compound 482, 3-[(3-fluoro-2-methoxyphenyl)amino]-2-[3-[(1-methylimidazol-2-yl)methoxy]pyridin-4-yl]-1H,5H,6H,7H-pyrrolo[3,2-c]pyridin-4-one] | 0.1 to 1 µM |  | > 1 µM
 | < 0.1 µM |  | COc1c(F)cccc1Nc1c(-c2ccncc2OCC2CCc3ncnn32)[nH]c2c1C(=O)NCC2 (centres unmarked) [compound 133] | 0.1 to 1 µM |  | > 1 µM
 | < 0.1 µM |  | C=CC(=O)N1CCC[C@H]1COc1cnccc1-c1[nH]c2c(c1Nc1cccc(F)c1CC)C(=O)NCC2 [compound 211, 3-[(2-ethyl-3-fluorophenyl)amino]-2-(3-{[(2S)-1-(prop-2-enoyl)pyrrolidin-2-yl]methoxy}pyridin-4-yl)-1H,5H,6H,7H-pyrrolo[3,2-c] pyridin-4-one] | < 0.1 µM | < 0.1 µM | < 0.1 µM
 | < 0.1 µM |  | C=C(F)C(=O)N1CC[C@@H]1COc1cnccc1-c1[nH]c2c(c1Nc1cccc(Cl)c1OC)C(=O)NCC2 [compound 226, 3-[(3-chloro-2-methoxyphenyl)amino]-2-(3-{[(2R)-1-(2-fluoroprop-2-enoyl)azetidin-2-yl]methoxy}pyridin-4-yl)-1H,5H,6H,7H-pyrrolo[3,2-c]pyridin-4-one] | < 0.1 µM | < 0.1 µM | 0.1 to 1 µM
 | < 0.1 µM | < 0.1 µM | CC#CC(=O)N1CC[C@@H]1COc1cnccc1-c1[nH]c2c(c1Nc1cccc(Cl)c1OC)C(=O)NCC2 [compound 227] | < 0.1 µM | < 0.1 µM | 0.1 to 1 µM
 | < 0.1 µM | < 0.1 µM | C=CC(=O)N1CCC[C@]1(C)C#Cc1cnccc1-c1[nH]c2c(c1Nc1cccc(F)c1OC)C(=O)NCC2 [compound 245, 3-[(3-fluoro-2-methoxyphenyl)amino]-2-(3-{2-[(2R)-2-methyl-1-(prop-2-enoyl)pyrrolidin-2-yl]ethynyl}pyridin-4-yl)-1H,5H,6H,7H-pyrrolo[3,2-c]pyridin-4-one] |  |  | 
 | < 0.1 µM | < 0.1 µM | C=CC(=O)NC(C)(C)C#Cc1cnccc1-c1[nH]c2c(c1Nc1cccc(F)c1OC)C(=O)NCC2 [compound 258, N-[4-(4-{3-[(3-fluoro-2-methoxyphenyl)amino]-4-oxo-1H,5H,6H,7H-pyrrolo[3,2-c]pyridin-2-yl}pyridin-3-yl)-2-methylbut-3-yn-2-yl]prop-2-enamide] |  |  | 
< 0.1 µM |  |  | COc1c(Cl)cccc1Nc1c(-c2ccncc2C#CC2(C)COC2)[nH]c2c1C(=O)NCC2 [compound 490] |  | 0.1 to 1 µM | > 1 µM
 | < 0.1 µM | < 0.1 µM | C=CC(=O)NC(C)(C)C#Cc1cnccc1-c1[nH]c2c(c1Nc1cccc(Cl)c1OC)C(=O)NCC2 [compound 492, N-[4-(4-{3-[(3-chloro-2-methoxyphenyl)amino]-4-oxo-1H,5H,6H,7H-pyrrolo[3,2-c]pyridin-2-yl}pyridin-3-yl)-2-methylbut-3-yn-2-yl]prop-2-enamide] |  |  | 
 | < 0.1 µM |  | COc1c(Cl)cccc1Nc1c(-c2ccncc2C#C[C@@H]2CN(C)CCO2)[nH]c2c1C(=O)NCC2 [compound 496] | < 0.1 µM | < 0.1 µM | > 1 µM
